# Measured values: EP0414533A1, “Use of iodopropargyl esters of alpha-amino acid derivatives as antimicrobial agents” (ROHM AND HAAS COMPANY, priority 1989, dated 1991)
# Like-named read-outs stand apart in the source and are kept apart here.
# What was measured:
# Aspergillus niger (ANIG) = experiment: Minimum inhibitory concentration (MIC), broth two-fold serial dilution test; type: cell-based; conditions: Aspergillus niger, IIIB, trypticase soy broth (complex media); Table IIIb; read-out: MIC (F) ANIG
# ALT = experiment: In-vitro plant fungicide test; type: cell-based; conditions: Table IVb, read-out: % Control at (ppm) indicated ALT
# Botrytis cinerea (BOC) = experiment: In-vitro plant fungicide test; type: cell-based; conditions: Botrytis cinerea
# CER = experiment: In-vitro plant fungicide test; type: cell-based; conditions: Table IVb, read-out: % Control at (ppm) indicated CER
# COL = experiment: In-vitro plant fungicide test; type: cell-based; conditions: Table IVb, read-out: % Control at (ppm) indicated COL
# Fusarium roseum (FUS) = experiment: In-vitro plant fungicide test; type: cell-based; conditions: Fusarium sambucinum
# [1] = system: Cochliobolus sativus (HEL); experiment: In-vitro plant fungicide test; type: cell-based; conditions: Bipolaris sorokiniana
# MON = experiment: In-vitro plant fungicide test; type: cell-based; conditions: Table IVb, read-out: % Control at (ppm) indicated MON
# [2] = system: Phytophthora capsici (PHY); experiment: In-vitro plant fungicide test; type: cell-based; conditions: Phytophthora capsici
# PSH = experiment: In-vitro plant fungicide test; type: cell-based; conditions: Table IVb, read-out: % Control at (ppm) indicated PSH
# Pythium ultimum (PYU) = experiment: In-vitro plant fungicide test; type: cell-based; conditions: Globisporangium ultimum
# Septoria nodorum (SEP) = experiment: In-vitro plant fungicide test; type: cell-based; conditions: Parastagonospora nodorum
# UST = experiment: In-vitro plant fungicide test; type: cell-based; conditions: Table IVb, read-out: % Control at (ppm) indicated UST
# [3] = system: Xanthomonas campestris (XAN); experiment: In-vitro plant fungicide test; type: cell-based; conditions: Xanthomonas campestris; 25 ppm; Table IVa; read-out: % Control at 25 ppm XAN
# THREE FUNGI = experiment: MIC test against three fungi in Mycophile Broth, pH 5.0, read after 8 days (Table VII); type: cell-based; conditions: 192 h, serial dilutions from 50 ppm, read after 8 days of incubation
# [4] = system: Pseudomonas fluorescens (PSFL); experiment: Minimum inhibitory concentration (MIC), broth two-fold serial dilution test; conditions: Pseudomonas fluorescens, IIIB, read-out: MIC (G-) PSFL, trypticase soy broth (complex media); Table IIIb
# [5] = system: Pseudomonas aerugenosa (PSAE); experiment: as above; conditions: Pseudomonas, IIIB, read-out: MIC (G-) PSAE, trypticase soy broth (complex media); Table IIIb
# Escherichia coli (ECOL) = experiment: as above; conditions: Escherichia coli, IIIB, read-out: MIC (G-) ECOL, trypticase soy broth (complex media); Table IIIb
# Excerpt: When the test is ready to be done, each vessel in the dilution series, except the first vessel, contains an equal volume of compound free broth. The first vessel contains twice the volume of broth with the starting concentration of test compound. One half of the broth from the first vessel is transferred to the second vessel. After being mixed, one half the resulting volume is removed from the second vessel and transferred to the third vessel. The entire cycle is repeated sufficiently to give a series of concentrations amounting to 500, 250, 125, 63, 31, 16, 8, and 4 ppm (or 100, 50, 25, 12.5, 6.2, 3.1, 1.6, and 0.8), respectively.
# Each vessel is then inoculated with a cell suspension of the appropriate test organism. Bacteria are grown in broth, fungi on agar slants for a time and at a temperature appropriate to the species being tested, and algae are a mixture of green algae and blue-green bacteria grown in a nutrient media. At the end of the growth period, in the case of bacteria, the broth is vortexed to disperse the cells.
# The vessels are then incubated at the appropriate temperature. After the incubation, the vessels are examined for growth/no growth.
compound,measurement,setting,value
"O=C(CN1C(=O)c2ccccc2C1=O)OCC#CI [Compound 30, N-phthaloylglycine iodopropargyl ester]",MIC,Aspergillus niger (ANIG),0.12 µg/mL
same,inhibition of growth at 1.5 ppm,ALT; 1.5 ppm,0%
same,inhibition of growth at 3 ppm,ALT; 3 ppm,50%
same,inhibition of growth at 6 ppm,ALT; 6 ppm,90%
same,inhibition of growth at 12 ppm,ALT; 12 ppm,100%
same,inhibition of growth at 25 ppm,ALT; 25 ppm,100%
same,inhibition of growth at 0.2 ppm,ALT; .2 ppm,0%
same,inhibition of growth at 0.4 ppm,ALT; .4 ppm,0%
same,inhibition of growth at 0.8 ppm,ALT; .8 ppm,0%
same,inhibition of growth at 1.5 ppm,"Botrytis cinerea (BOC); 1.5 ppm, Table IVb, read-out: % Control at (ppm) indicated BOC",0%
same,inhibition of growth at 6 ppm,"Botrytis cinerea (BOC); 6 ppm, Table IVb, read-out: % Control at (ppm) indicated BOC",0%
same,inhibition of growth at 25 ppm,"Botrytis cinerea (BOC); Table IVa, *=Phytotoxic, read-out: % Control at 25 ppm BOC",100%
same,inhibition of growth at 25 ppm,"Botrytis cinerea (BOC); Table IVb, read-out: % Control at (ppm) indicated BOC",90%
same,inhibition of growth at 0.2 ppm,"Botrytis cinerea (BOC); .2 ppm, Table IVb, read-out: % Control at (ppm) indicated BOC",0%
same,inhibition of growth at 0.4 ppm,"Botrytis cinerea (BOC); .4 ppm, Table IVb, read-out: % Control at (ppm) indicated BOC",0%
same,inhibition of growth at 0.8 ppm,"Botrytis cinerea (BOC); .8 ppm, Table IVb, read-out: % Control at (ppm) indicated BOC",0%
same,inhibition of growth at 1.5 ppm,CER; 1.5 ppm,0%
same,inhibition of growth at 25 ppm,CER; 25 ppm,100%
same,inhibition of growth at 0.2 ppm,CER; .2 ppm,0%
same,inhibition of growth at 0.4 ppm,CER; .4 ppm,0%
same,inhibition of growth at 0.8 ppm,CER; .8 ppm,0%
same,inhibition of growth at 1.5 ppm,COL; 1.5 ppm,0%
same,inhibition of growth at 3 ppm,COL; 3 ppm,0%
same,inhibition of growth at 6 ppm,COL; 6 ppm,50%
same,inhibition of growth at 12 ppm,COL; 12 ppm,100%
same,inhibition of growth at 25 ppm,COL; 25 ppm,100%
same,inhibition of growth at 0.2 ppm,COL; .2 ppm,0%
same,inhibition of growth at 0.4 ppm,COL; .4 ppm,0%
same,inhibition of growth at 0.8 ppm,COL; .8 ppm,0%
same,inhibition of growth at 25 ppm,"Fusarium roseum (FUS); read-out: % Control at 25 ppm FUS, 25 ppm, Table IVa, *=Phytotoxic",100%
same,inhibition of growth at 1.5 ppm,"Fusarium roseum (FUS); read-out: % Control at (ppm) indicated FUS, 1.5 ppm, Table IVb",0%
same,inhibition of growth at 3 ppm,"Fusarium roseum (FUS); read-out: % Control at (ppm) indicated FUS, 3 ppm, Table IVb",100%
same,inhibition of growth at 6 ppm,"Fusarium roseum (FUS); read-out: % Control at (ppm) indicated FUS, 6 ppm, Table IVb",100%
same,inhibition of growth at 12 ppm,"Fusarium roseum (FUS); read-out: % Control at (ppm) indicated FUS, 12 ppm, Table IVb",100%
same,inhibition of growth at 25 ppm,"Fusarium roseum (FUS); read-out: % Control at (ppm) indicated FUS, 25 ppm, Table IVb",100%
same,inhibition of growth at 0.2 ppm,"Fusarium roseum (FUS); read-out: % Control at (ppm) indicated FUS, .2 ppm, Table IVb",0%
same,inhibition of growth at 0.4 ppm,"Fusarium roseum (FUS); read-out: % Control at (ppm) indicated FUS, .4 ppm, Table IVb",0%
same,inhibition of growth at 0.8 ppm,"Fusarium roseum (FUS); read-out: % Control at (ppm) indicated FUS, .8 ppm, Table IVb",0%
same,inhibition of growth at 1.5 ppm,"[1]; 1.5 ppm, Table IVb, read-out: % Control at (ppm) indicated HEL",0%
same,inhibition of growth at 6 ppm,"[1]; 6 ppm, Table IVb, read-out: % Control at (ppm) indicated HEL",100%
same,inhibition of growth at 25 ppm,"[1]; Table IVa, *=Phytotoxic, read-out: % Control at 25 ppm HEL",100%
same,inhibition of growth at 25 ppm,"[1]; Table IVb, read-out: % Control at (ppm) indicated HEL",100%
same,inhibition of growth at 0.2 ppm,"[1]; .2 ppm, Table IVb, read-out: % Control at (ppm) indicated HEL",0%
same,inhibition of growth at 0.4 ppm,"[1]; .4 ppm, Table IVb, read-out: % Control at (ppm) indicated HEL",0%
same,inhibition of growth at 0.8 ppm,"[1]; .8 ppm, Table IVb, read-out: % Control at (ppm) indicated HEL",0%
same,inhibition of growth at 1.5 ppm,MON; 1.5 ppm,100%
same,inhibition of growth at 6 ppm,MON; 6 ppm,100%
same,inhibition of growth at 25 ppm,MON; 25 ppm,100%
same,inhibition of growth at 0.2 ppm,MON; .2 ppm,100%
same,inhibition of growth at 0.4 ppm,MON; .4 ppm,100%
same,inhibition of growth at 0.8 ppm,MON; .8 ppm,100%
same,inhibition of growth at 1.5 ppm,"[2]; 1.5 ppm, Table IVb, read-out: % Control at (ppm) indicated PHY",100%
same,inhibition of growth at 6 ppm,"[2]; 6 ppm, Table IVb, read-out: % Control at (ppm) indicated PHY",100%
same,inhibition of growth at 25 ppm,"[2]; Table IVa, read-out: % Control at 25 ppm PHY",100%
same,inhibition of growth at 25 ppm,"[2]; Table IVb, read-out: % Control at (ppm) indicated PHY",100%
same,inhibition of growth at 0.2 ppm,"[2]; .2 ppm, Table IVb, read-out: % Control at (ppm) indicated PHY",0%
same,inhibition of growth at 0.4 ppm,"[2]; .4 ppm, Table IVb, read-out: % Control at (ppm) indicated PHY",0%
same,inhibition of growth at 0.8 ppm,"[2]; .8 ppm, Table IVb, read-out: % Control at (ppm) indicated PHY",0%
same,inhibition of growth at 1.5 ppm,PSH; 1.5 ppm,100%
same,inhibition of growth at 6 ppm,PSH; 6 ppm,100%
same,inhibition of growth at 25 ppm,PSH; 25 ppm,100%
same,inhibition of growth at 0.2 ppm,PSH; .2 ppm,0%
same,inhibition of growth at 0.4 ppm,PSH; .4 ppm,100%
same,inhibition of growth at 0.8 ppm,PSH; .8 ppm,100%
same,inhibition of growth at 1.5 ppm,"Pythium ultimum (PYU); 1.5 ppm, Table IVb, read-out: % Control at (ppm) indicated PYU",100%
same,inhibition of growth at 6 ppm,"Pythium ultimum (PYU); 6 ppm, Table IVb, read-out: % Control at (ppm) indicated PYU",100%
same,inhibition of growth at 25 ppm,"Pythium ultimum (PYU); Table IVa, read-out: % Control at 25 ppm PYU",100%
same,inhibition of growth at 25 ppm,"Pythium ultimum (PYU); Table IVb, read-out: % Control at (ppm) indicated PYU",100%
same,inhibition of growth at 0.2 ppm,"Pythium ultimum (PYU); .2 ppm, Table IVb, read-out: % Control at (ppm) indicated PYU",100%
same,inhibition of growth at 0.4 ppm,"Pythium ultimum (PYU); .4 ppm, Table IVb, read-out: % Control at (ppm) indicated PYU",100%
same,inhibition of growth at 0.8 ppm,"Pythium ultimum (PYU); .8 ppm, Table IVb, read-out: % Control at (ppm) indicated PYU",100%
same,inhibition of growth at 1.5 ppm,"Septoria nodorum (SEP); 1.5 ppm, Table IVb, read-out: % Control at (ppm) indicated SEP",100%
same,inhibition of growth at 6 ppm,"Septoria nodorum (SEP); 6 ppm, Table IVb, read-out: % Control at (ppm) indicated SEP",100%
same,inhibition of growth at 25 ppm,"Septoria nodorum (SEP); Table IVa, read-out: % Control at 25 ppm SEP",75%
same,inhibition of growth at 25 ppm,"Septoria nodorum (SEP); Table IVb, read-out: % Control at (ppm) indicated SEP",100%
same,inhibition of growth at 0.2 ppm,"Septoria nodorum (SEP); .2 ppm, Table IVb, read-out: % Control at (ppm) indicated SEP",0%
same,inhibition of growth at 0.4 ppm,"Septoria nodorum (SEP); .4 ppm, Table IVb, read-out: % Control at (ppm) indicated SEP",0%
same,inhibition of growth at 0.8 ppm,"Septoria nodorum (SEP); .8 ppm, Table IVb, read-out: % Control at (ppm) indicated SEP",100%
same,inhibition of growth at 1.5 ppm,UST; 1.5 ppm,0%
same,inhibition of growth at 3 ppm,UST; 3 ppm,0%
same,inhibition of growth at 6 ppm,UST; 6 ppm,0%
same,inhibition of growth at 12 ppm,UST; 12 ppm,0%
same,inhibition of growth at 25 ppm,UST; 25 ppm,0%
same,inhibition of growth at 0.2 ppm,UST; .2 ppm,0%
same,inhibition of growth at 0.4 ppm,UST; .4 ppm,0%
same,inhibition of growth at 0.8 ppm,UST; .8 ppm,0%
same,inhibition of growth at 25 ppm,[3],0%
same,MIC,"THREE FUNGI; Aspergillus niger, read-out: MIC ANIG",12.5 µg/mL
same,MIC,"THREE FUNGI; Aureobasidium pullulans, read-out: MIC APUL",50 µg/mL
same,MIC,"THREE FUNGI; Gloeophyllum trabeum, read-out: MIC GTRA",6.2 µg/mL
same,MIC,[4],> 250 µg/mL
same,MIC,[5],> 250 µg/mL
same,MIC,Escherichia coli (ECOL),> 250 µg/mL
